Assay results as given in US20040076974A1, “Liver necrosis predictive genes” (priority 2002, published 2004).
Like-named read-outs stand apart in the source and are kept apart here.

Test system: Sprague Dawley rats
Conditions: for Liver Necrosis / Score (histopathology liver necrosis severity score): rat, intraperitoneal; for Liver Necrosis: 72 hours after treatment; for Score (histopathology liver necrosis severity score): 72 hours, 1 = not remarkable, 2 and higher increasing severity
Procedure, shortened: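 Toxicity calls (necrosis present or absent at 72 h) and histopathology scores were correlated with tissue gene expression from Crl:CD Sprague Dawley rats. Animals, usually 3 treated with compound by i.p. route and 3 given vehicle, were killed at 6, 24 or 72 h and tissues frozen immediately in liquid nitrogen.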

CCC1(c2ccccc2)C(=O)NC(=O)NC1=O [phenobarbital]
no: Liver Toxicity Necrosis Classification (72 h, dose 20) | Liver Toxicity Necrosis Classification (72 h, dose 80) | Liver Toxicity Necrosis Classification (compound-dose group at 72 h, dose 20) | Liver Toxicity Necrosis Classification (compound-dose group at 72 h, dose 80) | Liver Toxicity Necrosis Classification (compound-dosegroup at 72 h, dose 20) | Liver Toxicity Necrosis Classification (compound-dosegroup at 72 h, dose 80) | Liver Necrosis (dose 20 mg/kg) | Liver Necrosis (dose 80 mg/kg)
1: Score (histopathology liver necrosis severity score) (dose 20 mg/kg) | Score (histopathology liver necrosis severity score) (dose 80 mg/kg)
